Results reported in patent publication US4734280A, “Treatment or prevention of PAF Acether-induced maladies” (priority 1984, dated 1988).
≈ marks a conversion by molar mass, not a printed value. Like-named read-outs stand apart in the source and are kept apart here.

How the values were obtained:
rabbit platelets = test: Ex vivo PAF Acether-induced rabbit PA after per os or IV administration; type: in vivo; settings: for activity at 0.5 mg/kg / activity at 1 mg/kg / activity at 2 mg/kg: Oryctolagus cuniculus, Platelet, iv, read-out: PAF Acether-induced rabbit PA (% of control); for activity at 0.5 mg/kg: IV 0.5 mg/kg; for activity at 1 mg/kg: IV 1 mg/kg; for activity at 2 mg/kg: IV 2 mg/kg
Description: Drugs were administered per os (2,5 and 10 mg/kg) or by IV route (0.5, 1, 2 mg/kg) and blood samples were taken at different times to test platelet aggregation with PAF-Acether ([…]) (see following table wherein the figures appearing are the ratio to the control with the solvent used, i.e. DMSO).

human PRP = test: Inhibition of PAF Acether-induced PA, human PRP in vitro; type: cell-based; settings: PAF Acether 100 nM, read-out: IC Doses (PAF Acether-induced PA, human PRP)
Description: The Inhibition of PAF Acether-induced PA has been studied on rabbit plasma-rich platelets (PRP). Two doses of PAF Acether were used (2.5 nM and 5 nM). The tested compound was added to the medium 3 minutes before PAF Acether and aggregation was followed by monitoring changes in electrical impedance (Whole-Blood aggregometer-chrono-Log); kadsurenone was simultaneously tested as reference compound and the IC50 molar doses of Ginkgolides A, B, C and M and of kadsurenone on PAF Acether-induced rabbit PA (PRP) have been calculated.
The inhibition of PAF Acether-induced PA has been studied on human PRP. The same protocol was used as for rabbit hereinabove.

human platelets = test: Ex vivo PAF Acether-induced PA in man after IV administration; settings: IV 25 mg, PAF Acether 100 nM
Description: […] DMSO).
The same protocol described hereinabove for rabbit was used in man with only one dose of each Ginkgolide (IV 25 mg) and two blood takes (at 0.5 h and 1 h).

[1] = test system: guinea-pig mesenteric artery; test: Opto-electronic follow-up of PAF Acether-induced thrombus, guinea-pig mesenteric artery; type: in vivo
Description: In this experimental study, 20 guinea-pigs were used. […] Briefly summarized, this method consists in the dissection over a distance of 2 to 3 mm of a branch of the mesenteric artery following gently extraction of a loop of small intestine. By transillumination, the image of this arterial segment is projected onto a set of 30 light-depending resistances (LDR) arranged in two columns of 15 elements each. An LDR element has the property to change its internal resistance as a function of a variation of light intensity. Each LDR is connected into its own Wheatstone bridge, and the changes in light intensity due to thrombus formation will be recorded as variations in electrical potentials and registered as such via a multiplexing device.
In the present investigation, several discriminating parameters are recorded: (a) the t1 interval or the lag period (this is the time interval between the beginning of the PAF Acether superfusion and the first signs of thrombus formation; (b) the td interval is the duration of the thrombotic phenomenon; (c) the O(t) curve indicates the number of LDR elements covered by the thrombus image; (d) the D(t) curve represents during each 30×1/9×10^-2 sec interval the greatest potential deviation on one of the LDR elements covered by the thrombus image; (e) the T(t) curve represents the summation of the potentials registered on the LDR elements during a time interval of 30×1/9×10^-2 sec the TTV(t) curve results from the integration of the T(t) values in function of time; (f) mD, mT, and mO correspond to the maximal values registered on, respectively, the D(t), T(t), and O(t) curves; (g) TTV is the maximal value of the TTV(t) curve, whereas TVM is the value of this curve up to the point where mT is reached.
In a first series of experiments (10 animals) the effect of local superfusion with PAF Acether (10^-4 M) is investigated.
In a second series of experiments (10 animals) the effects of Ginkgolide B and of kadsurenone have been compared preventively and curatively.

[2] = test system: guinea-pig lung parenchymal strip; test: PAF Acether-induced contraction of superfused lung parenchymal strip
rat portal vein = test: Isolated rat portal vein, PAF Acether-induced increase of basal tonus
Description: In vitro experiments were performed on isolated longitudinal strips of rat portal vein maintained in Krebs-Henseleit medium at 37° C. under an oxygen-rich gaseous circulation (95% O2 -5% CO2).
The preparations were allowed to equilibrate for 1 hour under isotonic conditions with 500 mg tension and rinced every 15 minutes. When myogenic activity was established, PAF Acether (10^-7 M) is added. It induced an increase of the basal tonus and frequency of the myogenic activity.

[3] = test system: guinea-pig isolated heart; test: Isolated Langendorff heart, PAF Acether effect; settings: PAF Acether 100 pM
Description: The deletereous effect of PAF Acether on Isolated Langendorff heart has been previously described by J. BENVENISTE, C. BOULLET, C. BRINK and C. LABAT, Brit. J. Pharmacol, The action of PAF Acether on guinea-pig isolated heart preparation, 80: 81-3 (1983).
PAF Acether (100 pM) induced a decline in contractile strength (-30%) and a decrease of coronary flow (-50%).
This effect was dose-dependent (disappearance of protective activity when dose ≤10^-7 M).

[4] = 0.5 h, PAF Acether 2.5 nM, 0.5 h
[5] = 0.5 h, PAF Acether 5.0 nM, 0.5 h

CC1C(=O)OC2C(O)C34C5CC(C(C)(C)C)C36C(OC(=O)C6O)OC4(C(=O)O5)C12O (stereo not shown) [Ginkgolide B]
activity at 0.5 mg/kg (rabbit platelets; [4]): 0%
activity at 0.5 mg/kg (rabbit platelets; [5]): 0%
activity at 1 mg/kg (rabbit platelets; [4]): 0%
activity at 1 mg/kg (rabbit platelets; [5]): 0%
activity at 2 mg/kg (rabbit platelets; [4]): 0%
activity at 2 mg/kg (rabbit platelets; [5]): 0%
activity at 0.5 mg/kg (rabbit platelets; 1 h, PAF Acether 2.5 nM, 1 h): 7.4%
activity at 0.5 mg/kg (rabbit platelets; 1 h, PAF Acether 5.0 nM, 1 h): 9.4%
activity at 1 mg/kg (rabbit platelets; 1 h, PAF Acether 2.5 nM, 1 h): 0%
activity at 1 mg/kg (rabbit platelets; 1 h, PAF Acether 5.0 nM, 1 h): 1.1%
activity at 2 mg/kg (rabbit platelets; 1 h, PAF Acether 2.5 nM, 1 h): 0%
activity at 2 mg/kg (rabbit platelets; 1 h, PAF Acether 5.0 nM, 1 h): 0%
activity at 0.5 mg/kg (rabbit platelets; 2 h, PAF Acether 2.5 nM, 2 h): 11.2%
activity at 0.5 mg/kg (rabbit platelets; 2 h, PAF Acether 5.0 nM, 2 h): 14.5%
activity at 1 mg/kg (rabbit platelets; 2 h, PAF Acether 2.5 nM, 2 h): 4.1%
activity at 1 mg/kg (rabbit platelets; 2 h, PAF Acether 5.0 nM, 2 h): 7.2%
activity at 2 mg/kg (rabbit platelets; 2 h, PAF Acether 2.5 nM, 2 h): 0%
activity at 2 mg/kg (rabbit platelets; 2 h, PAF Acether 5.0 nM, 2 h): 0%
PAF Acether-induced rabbit PA (% of control) (rabbit platelets; per os 2 mg/kg, PAF Acether 2.5 nM, 0.5 h): 23%
PAF Acether-induced rabbit PA (% of control) (rabbit platelets; per os 2 mg/kg, PAF Acether 2.5 nM, 1 h): 37%
PAF Acether-induced rabbit PA (% of control) (rabbit platelets; per os 2 mg/kg, PAF Acether 2.5 nM, 2 h): 54%
PAF Acether-induced rabbit PA (% of control) (rabbit platelets; per os 2 mg/kg, PAF Acether 5.0 nM, 0.5 h): 34.5%
PAF Acether-induced rabbit PA (% of control) (rabbit platelets; per os 2 mg/kg, PAF Acether 5.0 nM, 1 h): 47.8%
PAF Acether-induced rabbit PA (% of control) (rabbit platelets; per os 2 mg/kg, PAF Acether 5.0 nM, 2 h): 71.2%
PAF Acether-induced rabbit PA (% of control) (rabbit platelets; per os 5 mg/kg, PAF Acether 2.5 nM, 1 h): 7%
PAF Acether-induced rabbit PA (% of control) (rabbit platelets; per os 5 mg/kg, PAF Acether 2.5 nM, 2 h): 10%
PAF Acether-induced rabbit PA (% of control) (rabbit platelets; per os 5 mg/kg, PAF Acether 5.0 nM, 0.5 h): 6%
PAF Acether-induced rabbit PA (% of control) (rabbit platelets; per os 5 mg/kg, PAF Acether 5.0 nM, 1 h): 11.4%
PAF Acether-induced rabbit PA (% of control) (rabbit platelets; per os 5 mg/kg, PAF Acether 5.0 nM, 2 h): 27.1%
IC50 (human PRP): 56 µM
% of aggregation with respect to control (human platelets; blood take at 0.5 h): 0%
% of aggregation with respect to control (human platelets; blood take at 1.0 h): 3.4%
thrombus formation when superfused with PAF Acether (preventive) ([1]; PAF Acether superfusion): no thrombus appeared
time for disappearance of pre-formed thrombus (curative) ([1]; PAF Acether-induced thrombus): 2.30 min
inhibition at 30 µg/mL ([2]; Cavia porcellus, read-out: change of PAF Acether (3 ng)-induced contraction): 78.8%
Contraction induced by PAF Acether (3 ng) (Arbitrary Units) ([2]; preventive superfusion 30 μg/ml, average of 10 determinations): 8.05 ± 2.16 Arbitrary Units
IC50 (rat portal vein; Rattus norvegicus, PAF Acether 10^-7 M, added 30 minutes before PAF Acether, read-out: IC50 (antagonism of PAF Acether-induced increase of the basal tonus)): 6.8 µg/mL (≈ 16 µM)
effect on the myogenic activity (rat portal vein; isolated rat portal vein): without effect
inhibition of PAF Acether-induced decline in contractile strength and decrease of coronary flow ([3]; 2.10^-4 M): totally inhibited
dose at which protective activity disappears [3]: ≤ 10^-7 M
